Assay results as given in US5135935A, “Squalene synthetase inhibitors” (Merck & Co., Inc., priority 1991, dated 1992).

Target: T1, Squalene Synthetase (Rattus norvegicus, UniProt Q02769)
T1 construct: from tissue; host or cells: liver microsomes of male Charles River CD rats fed 0.1% lovastatin
T1 sequence (Q02769 1-416): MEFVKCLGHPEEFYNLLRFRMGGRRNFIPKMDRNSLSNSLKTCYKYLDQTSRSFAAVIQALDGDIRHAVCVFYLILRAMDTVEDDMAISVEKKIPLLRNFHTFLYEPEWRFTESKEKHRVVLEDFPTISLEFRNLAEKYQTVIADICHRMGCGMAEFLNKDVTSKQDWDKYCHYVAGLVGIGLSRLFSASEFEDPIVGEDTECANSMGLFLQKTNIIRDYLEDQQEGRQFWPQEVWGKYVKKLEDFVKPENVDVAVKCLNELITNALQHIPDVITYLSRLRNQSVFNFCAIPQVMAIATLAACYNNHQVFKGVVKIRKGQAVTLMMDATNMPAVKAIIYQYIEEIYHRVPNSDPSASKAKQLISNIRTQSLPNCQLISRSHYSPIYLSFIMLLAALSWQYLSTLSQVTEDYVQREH
Experiment: Squalene synthetase assay, rat liver microsomes, [4-14C]farnesyl pyrophosphate
Format: biochemical
Conditions: salt form as tabulated; for IC50: 30° C., 20 minutes; for inhibition at 0.3 µg/mL: conc. 0.3 μg/mL
Protocol: The intrinsic squalene synthetase inhibitory activity of representative compounds of this invention was measured by the standard in vitro protocol described below:
Male, Charles River CD rats (120 to 150 g) were fed a diet containing 0.1% lovastatin for 4 days. The livers from these rats were homogenized in 5 volumes (mL/g) of ice cold 50 mM HEPES (4-(2-hydroxyethyl)-1-piperazine-ethanesulfonic acid), 5 mM EDTA (ethylenediaminetetraacetic acid) pH 7.5 with a Potter-Elvehjem type tissue grinder. The homogenate was centrifuged twice at 20,000×g for 15 minutes at 4° C., discarding the pellet each time. The supernatant was then centrifuged at 100,000×g for 1 hour at 4° C. The resulting microsomal pellet was resuspended in a volume of the above homogenizing buffer equal to one-fifth the volume of the original homogenate. This microsomal preparation has a protein concentration of about 7 mg/mL. The microsomal suspensions were stored in aliquots at -70° C. Squalene synthetase activity in these aliquots is stable for at least several months.
Prenyl transferase was purified to use in the enzymatic synthesis of radiolabelled farnesyl pyrophosphate. Prenyl transferase was assayed by the method of Rilling (Methods in Enzymology 110, 125-129 (1985)) and a unit of activity is defined as the amount of enzyme that will produce 1 μmole of farnesyl pyrophosphate per minute at 30° C. in the standard assay.
The livers of 23 forty-day old male rats that had been fed 5% cholestyramine plus 0.1% lovastatin were homogenized in a Waring blender in 1 liter of 10 mM mercaptoethanol, 2 mM EDTA, 25 μM leupeptin, 0.005% phenylmethyl sulfonyl fluoride pH 7.0 containing 0.1 trypsin inhibitor units of aprotinin/mL. The homogenate was centrifuged at 20,000×g for 20 minutes. The supernatant was adjusted to pH 5.5. with 6N HOAc and centrifuged at 100,000×g for 1 hour. This supernatant was adjusted to pH 7.0 with 3N KOH and a 35-60% ammonium sulfate fraction taken. The 60% pellet was redissolved in 60 mL of 10 mM potassium phosphate, 10 mM mercaptoethanol, 1 mM EDTA pH 7.0 (Buffer A) and dialyzed against two 1 liter changes of Buffer A. This dialyzed fraction was applied to a 12.5×5 cm column of DEAE-sepharose 4B equilibrated with Buffer A. The column was washed with 700 mL of Buffer A and a 1 liter gradient from Buffer A to 100 mM potassium phosphate, 10 mM mercaptoethanol, 1 mM EDTA pH 7.0. Fractions having a specific activity greater than 0.20 units/mg were combined, solid ammonium sulfate was added to bring to 60% saturation and pelleted. The pellet was dissolved in 8 mL of 10 mM Tris, 10 mM β-mercaptoethanol pH 7.0 (Buffer B). The redissolved pellet was taken to 60% saturation with ammonium sulfate by adding 1.5 volumes of saturated ammonium sulfate in Buffer B. This ammonium sulfate suspension contained 3.5 units/mL with a specific activity of 0.23 units/mg and was free of isopentenyl pyrophosphate isomerase activity. This ammonium sulfate suspension was used for the synthesis of [4-^14 C]farnesyl-pyrophosphate and its activity was stable stored at 4° C. for at least 6 months.
The solvent (ethanol: 0.15N NH4 OH, 1:1) was removed from 55 μCi of [4-^14 C]isopentenyl pyrophosphate(47.9 μCi/μmole) by rotary evaporation. Six hundred microliters of 100 mM Tris, 10 mM MgCl2, 4 mM dithiothreitol pH 7.5 was added and the solution was transferred to a 1.5 ml Eppendorf centrifuge tube. Geranyl-pyrophosphate, 250 μL of a 20 mM solution, and 50 μL of the ammonium sulfate suspension of prenyl transferase were added to initiate the reaction. This incubation contained 5 μmoles of geranyl pyrophosphate, 1.15 μmoles of isopentenyl pyrophosphate, 6 μmoles of MgCl2 of 0.18 units of prenyl transferase in a volume of 900 μL. The incubation was conducted at 37° C. During the incubation, the mix turned cloudy white as the newly formed magnesium complex of farnesyl pyrophosphate precipitated out of solution. […]

Row | SMILES | IC50 (in absence of PPi) | IC50 (in presence of 1 mM PPi) | inhibition at 0.3 µg/mL (in presence of 1 mM PPi)
1 | Cn1cc(-c2noc(C3CN4CCC3CC4)n2)c2ccccc21 (centres unmarked) [Compound 3, 3-[3-(1-methyl-1H-indol-3-yl)-1,2,4-oxadiazol-5-yl]-1-azabicyclo[2.2.2]octane] | 1.6 µM | 0.028 µM | 
2 | Cn1cc(-c2noc(C3CN4CCC3CC4)n2)c2cc(F)ccc21 (centres unmarked) [Compound 4, 3-[3-(5-fluoro-1-methyl-1H-indol-3-yl)-1,2,4-oxadiazol-5-yl]-1-azabicyclo[2.2.2]octane] |  |  | 97%
3 | CC(=O)OC(c1ccccc1)c1noc(C2CN3CCC2CC3)n1 (centres unmarked) [Compound 6, 3-[3-(1-acetoxy-1-phenylmethyl)-1,2,4-oxadiazol-5-yl]-quinuclidine] |  |  | 70%
4 | OC(c1ccccc1)c1noc(C2CN3CCC2CC3)n1 (stereo not drawn) [Compound 7, α-phenyl-5-(1-azabicyclo[2.2.2]oct-3-yl)-1,2,4-oxadiazole-3-methanol] |  |  | 49%
5 | Cn1c(-c2noc(C3CN4CCC3CC4)n2)cc2ccccc21 (centres unmarked) [Compound 15, 3-[3-(1-methyl-1H-indol-2-yl)-1,2,4-oxadiazol-5-yl]-1-azabicyclo[2.2.2]octane] | 1.1 µM | 0.02 µM | 
6 | Cc1ccc2c(c1)c(-c1noc(C3CN4CCC3CC4)n1)cn2C (centres unmarked) [Compound 19, 3-[3-(1,5-dimethyl-1H-indol-3-yl)-1,2,4-oxadiazol-5-yl]-1-azabicyclo[2.2.2]octane] |  | 0.058 µM | 96%
7 | c1ccc(-c2noc(C3CN4CCC3CC4)n2)cc1 (centres unmarked) [Compound 24, 3-[3-phenyl-1,2,4-oxadiazol-5-yl]-1-azabicyclo[2.2.2]octane] |  | 0.043 µM | 98%
8 | c1cncc(-c2noc(C3CN4CCC3CC4)n2)c1 (centres unmarked) [Compound 26, 3-[3-(3-pyridinyl)-1,2,4-oxadiazol-5-yl]-1-azabicyclo[2.2.2]octane] | > 10 µM | 0.66 µM | 
9 | c1ccc2c(-c3noc(C4CN5CCC4CC5)n3)cccc2c1 (centres unmarked) [Compound 27, 3-[3-(1-naphthalenyl)-1,2,4-oxadiazol-5-yl]-1-azabicyclo[2.2.2]octane] | 2.3 µM | 0.011 µM | 99%
10 | COc1cccc(-c2noc(C3CN4CCC3CC4)n2)c1 (centres unmarked) [Compound 28, 3-[3-(3-methoxyphenyl)-1,2,4-oxadiazol-5-yl]-1-azabicyclo[2.2.2]octane] | 2.8 µM | 0.031 µM | 99%
11 | COc1ccccc1-c1noc(C2CN3CCC2CC3)n1 (centres unmarked) [Compound 29, 3-[3-(2-methoxyphenyl)-1,2,4-oxadiazol-5-yl]-1-azabicyclo[2.2.2]octane] | 14 µM | 0.25 µM | 
12 | COc1ccc(-c2noc(C3CN4CCC3CC4)n2)cc1 (centres unmarked) [Compound 30, 3-[3-(4-methoxyphenyl)-1,2,4-oxadiazol-5-yl]-1-azabicyclo[2.2.2]octane] |  |  | 99%
13 | Oc1ccccc1-c1noc(C2CN3CCC2CC3)n1 (centres unmarked) [Compound 31, 2-[5-(1-azabicyclo[2.2.2]oct-3-yl)-1,2,4-oxadiazol-5-yl]-phenol] |  |  | 90%
14 | Oc1cccc(-c2noc(C3CN4CCC3CC4)n2)c1 (centres unmarked) [Compound 32, 3-[5-(1-azabicyclo[2.2.2]oct-3-yl)-1,2,4-oxadiazol-5-yl]-phenol] |  |  | 92%
15 | Oc1ccc(-c2noc(C3CN4CCC3CC4)n2)cc1 (centres unmarked) [Compound 33, 4-[5-(1-azabicyclo[2.2.2]oct-3-yl)-1,2,4-oxadiazol-5-yl]-phenol] |  |  | 84%
16 | OC(c1ccccc1)(c1ccccc1)c1noc(C2CN3CCC2CC3)n1 (centres unmarked) [Compound 34, 3-[3-(1,1-diphenyl-1-hydroxymethyl)-1,2,4-oxadiazol-5-yl]-quinuclidine] |  |  | 60%
17 | c1ccc2c(-c3noc(C4CN5CCC4CC5)n3)c[nH]c2c1 (centres unmarked) [Compound 35, 3-[3-(1H-indol-3-yl)-1,2,4-oxadiazol-5-yl]-1-azabicyclo[2.2.2]octane] | 1.9 µM | 0.023 µM | 98%
18 | c1ccc2ncc(-c3noc(C4CN5CCC4CC5)n3)cc2c1 (centres unmarked) [Compound 36, 3-[3-(3-quinolyl)-1,2,4-oxadiazol-5-yl]-1-azabicyclo[2.2.2]octane] |  | 0.042 µM | 97%
19 | O=C(c1ccccc1)c1noc(C2CN3CCC2CC3)n1 (centres unmarked) [Compound 37, 3-(3-benzoyl-1,2,4-oxadiazol-5-yl)quinuclidine] |  |  | 64%
